Consider 35 compounds from patent publication US8629157B2, “Pyrrolidine compounds which modulate the CB2 receptor” (Boehringer Ingelheim International GmbH, priority 2009, dated 2014).

Sequence of human CB2R (P34972 whole entry): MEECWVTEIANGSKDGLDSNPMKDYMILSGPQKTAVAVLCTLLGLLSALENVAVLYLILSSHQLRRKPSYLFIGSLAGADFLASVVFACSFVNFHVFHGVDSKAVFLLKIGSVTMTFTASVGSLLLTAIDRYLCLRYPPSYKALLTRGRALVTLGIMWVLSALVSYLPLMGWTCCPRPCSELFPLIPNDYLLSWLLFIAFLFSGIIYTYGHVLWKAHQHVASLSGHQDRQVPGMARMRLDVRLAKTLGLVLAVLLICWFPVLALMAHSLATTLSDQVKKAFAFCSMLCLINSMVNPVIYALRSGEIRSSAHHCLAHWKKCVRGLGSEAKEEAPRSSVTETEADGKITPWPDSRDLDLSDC

One assay concerns the target human CB2R (Homo sapiens, UniProt P34972). The assay is described as follows: CB2R mediated modulation of cAMP synthesis. It is filed as cell-based.
Settings: not given
As to the method:
B. CB2R Mediated Modulation of cAMP Synthesis:
Compounds of the invention were evaluated for their CB2 agonist or inverse agonistic activity in accordance with the following experimental method.
CHO cells expressing human CB2R (Euroscreen) were plated at a density of 5000 cells per well in 384 well plates and incubated overnight at 37° C. After removing the media, the cells were treated with test compounds diluted in stimulation buffer containing 1 mM IBMX, 0.25% BSA and 10 uM Forskolin. The assay was incubated for 30 minutes at 37° C. Cells were lysed and the cAMP concentration was measured using DiscoverX-XS cAMP kit, following the manufacturer's protocol. In this setting, agonists will decrease forskolin induced production of cAMP while inverse agonists will further increase forskolin induced production of cAMP. EC50 of agonists were calculated as follows. The maximal amount of cAMP produced by forskolin compared to the level of cAMP inhibited by 1 uM CP55940 is defined as 100%. […] Data was analyzed using a four-parameter logistic model. (Model 205 of XLfit 4.0).
Regarding `CC(C)(C)c1csc(NC(=O)[C@@H]2CCCN2c2ncc(C(F)(F)F)cc2Cl)n1` [(S)-1-(3-Chloro-5-trifluoromethyl-pyridin-2-yl)-pyrrolidine-2-carboxylic acid (4-tert-butyl-thiazol-2-yl)-amide], the EC50 came out at 1.95 nM. Turning to `CC(C)(C)c1cc(NC(=O)[C@@H]2CCCN2c2ncc(C(F)(F)F)cc2Cl)no1` [(S)-1-(3-Chloro-5-trifluoromethyl-pyridin-2-yl)-pyrrolidine-2-carboxylic acid (5-tert-butyl-isoxazol-3-yl)-amide], the EC50 was found to be 0.08 nM. With `CC(C)(C)c1cc(NC(=O)[C@@H]2CCC(=O)N2c2cccc(Cl)c2)on1` [(S)-1-(3-Chloro-phenyl)-5-oxo-pyrrolidine-2-carboxylic acid (3-tert-butyl-isoxazol-5-yl)-amide], the EC50 came out at 203 nM. Regarding `COc1ccc(N2C(=O)CC[C@H]2C(=O)Nc2cc(C(C)(C)C)no2)cc1F` [(S)-1-(3-Fluoro-4-methoxy-phenyl)-5-oxo-pyrrolidine-2-carboxylic acid (3-tert-butyl-isoxazol-5-yl)-amide], the EC50 is 314 nM. The same measure, in the same setting: the figure for `CC(C)(C)c1cc(NC(=O)[C@@H]2CCC(=O)N2c2ncc(C(F)(F)F)cc2F)on1` [(S)-1-(3-Fluoro-5-trifluoromethyl-pyridin-2-yl)-5-oxo-pyrrolidine-2-carboxylic acid (3-tert-butyl-isoxazol-5-yl)-amide] is 5 nM; for `CC(C)(C)c1cc(NC(=O)[C@@H]2CCC(=O)N2c2cccc(F)c2)on1` [(S)-1-(3-Fluoro-phenyl)-5-oxo-pyrrolidine-2-carboxylic acid (3-tert-butyl-isoxazol-5-yl)-amide] it is 357 nM.

With `CC(C)(C)c1cc(NC(=O)[C@@H]2CCCN2CCCO)on1` [(S)-1-(3-Hydroxy-propyl)-pyrrolidine-2-carboxylic acid (3-tert-butyl-isoxazol-5-yl)-amide], the EC50 came out at 28.6 nM.

Consider `CC(C)(C)c1nnc(NC(=O)[C@@H]2CCCN2CCCO)s1` [(S)-1-(3-Hydroxy-propyl)-pyrrolidine-2-carboxylic acid (5-tert-butyl-1,3,4-thiadiazol-2-yl)-amide], for which the EC50 was found to be 320 nM. For `CC(C)(C)c1cc(NC(=O)[C@@H]2CCC(=O)N2c2ncc(C(F)(F)F)cc2Cl)no1` [(S)-1-(3-chloro-5-trifluoromethyl-pyridin-2-yl)-5-oxo-pyrrolidine-2-carboxylic acid (5-tert-butyl-isoxazol-3-yl)-amide], the response was half-maximal at 6.5 nM (EC50). With `CC(C)(C)c1cc(NC(=O)[C@@H]2CC(F)(F)CN2C(=O)C2CCC(F)(F)CC2)no1` [(S)-1-(4,4-Difluoro-cyclohexanecarbonyl)-4,4-difluoro-pyrrolidine-2-carboxylic acid (5-tert-butyl-isoxazol-3-yl)-amide], the EC50 worked out at 226 nM. Consider `CC(C)(C)c1cc(NC(=O)[C@@H]2CCC(=O)N2c2ccc(Cl)cc2F)on1` [(S)-1-(4-Chloro-2-fluoro-phenyl)-5-oxo-pyrrolidine-2-carboxylic acid (3-tert-butyl-isoxazol-5-yl)-amide], for which the midpoint of the response, the EC50, lay at 82 nM. As to `CC(C)(C)c1cc(NC(=O)[C@@H]2CCC(=O)N2c2ccc(Cl)c(F)c2)on1` [(S)-1-(4-Chloro-3-fluoro-phenyl)-5-oxo-pyrrolidine-2-carboxylic acid (3-tert-butyl-isoxazol-5-yl)-amide], the midpoint of the response, the EC50, lay at 14.2 nM. Same read-out and setting: to `CC(C)(C)c1cc(NC(=O)[C@@H]2CCC(=O)N2c2ccc(Cl)c(F)c2)no1` [(S)-1-(4-Chloro-3-fluoro-phenyl)-5-oxo-pyrrolidine-2-carboxylic acid (5-tert-butyl-isoxazol-3-yl)-amide] belongs 12.7 nM; to `Cc1cc(N2C(=O)CC[C@H]2C(=O)Nc2cc(C(C)(C)C)no2)ccc1Cl` [(S)-1-(4-Chloro-3-methyl-phenyl)-5-oxo-pyrrolidine-2-carboxylic acid (3-tert-butyl-isoxazol-5-yl)-amide], 23.7 nM.

Consider `Cc1cc(N2C(=O)CC[C@H]2C(=O)Nc2cc(C(C)(C)C)on2)ccc1Cl` [(S)-1-(4-Chloro-3-methyl-phenyl)-5-oxo-pyrrolidine-2-carboxylic acid (5-tert-butyl-isoxazol-3-yl)-amide], for which the EC50 is 59.4 nM. Consider `CC(C)(C)c1cc(NC(=O)[C@@H]2CCCN2S(=O)(=O)c2ccc(Cl)cc2)no1` [(S)-1-(4-Chloro-benzenesulfonyl)-pyrrolidine-2-carboxylic acid (5-tert-butyl-isoxazol-3-yl)-amide], for which it took 284 nM to reach a half-maximal effect (EC50). Still for that read-out and setting: to `CC(C)(C)c1cc(NC(=O)[C@@H]2CCCN2Cc2ccc(Cl)cc2)on1` [(S)-1-(4-Chloro-benzyl)-pyrrolidine-2-carboxylic acid (3-tert-butyl-isoxazol-5-yl)-amide] belongs 2.28 nM; to `CC(C)(C)c1cc(NC(=O)[C@]2(C)CCCN2c2ccc(Cl)cc2)no1` [(S)-1-(4-Chloro-phenyl)-2-methyl-pyrrolidine-2-carboxylic acid (5-tert-butyl-isoxazol-3-yl)-amide], 0.21 nM. `C[C@@]1(C(=O)Nc2ccc(C(F)(F)F)cn2)CCCN1c1ccc(Cl)cc1` [(S)-1-(4-Chloro-phenyl)-2-methyl-pyrrolidine-2-carboxylic acid (5-trifluoromethyl-pyridin-2-yl)-amide]: the midpoint of the response, the EC50, lay at 27.2 nM. Regarding `O=C(NCCC1CCCCC1)[C@@H]1CCC(=O)N1c1ccc(Cl)cc1` [(S)-1-(4-Chloro-phenyl)-5-oxo-pyrrolidine-2-carboxylic acid (2-cyclohexyl-ethyl)-amide], the EC50 was found to be 334 nM. As for `CC1CC(NC(=O)[C@@H]2CCC(=O)N2c2ccc(Cl)cc2)CC(C)(C)C1` (stereo partly drawn) [(S)-1-(4-Chloro-phenyl)-5-oxo-pyrrolidine-2-carboxylic acid (3,3,5-trimethyl-cyclohexyl)-amide], the response was half-maximal at 212 nM (EC50). Still for that read-out and setting: to `CC(C)c1cc(NC(=O)[C@@H]2CCC(=O)N2c2ccc(Cl)cc2)on1` [(S)-1-(4-Chloro-phenyl)-5-oxo-pyrrolidine-2-carboxylic acid (3-isopropyl-isoxazol-5-yl)-amide] belongs 290 nM; to `CCCc1cc(NC(=O)[C@@H]2CCC(=O)N2c2ccc(Cl)cc2)on1` [(S)-1-(4-Chloro-phenyl)-5-oxo-pyrrolidine-2-carboxylic acid (3-propyl-isoxazol-5-yl)-amide], 263 nM; to `CC(C)(C)c1cc(NC(=O)[C@@H]2CCC(=O)N2c2ccc(Cl)cc2)sn1` [(S)-1-(4-Chloro-phenyl)-5-oxo-pyrrolidine-2-carboxylic acid (3-tert-butyl-isothiazol-5-yl)-amide], 135 nM. Take `CC(C)(C)c1cccc(NC(=O)[C@@H]2CCC(=O)N2c2ccc(Cl)cc2)c1` [(S)-1-(4-Chloro-phenyl)-5-oxo-pyrrolidine-2-carboxylic acid (3-tert-butyl-phenyl)-amide]: a half-maximal response (EC50) required 58.7 nM.

As for `CC(C)(C)C1CCC(NC(=O)[C@@H]2CCC(=O)N2c2ccc(Cl)cc2)CC1` (stereo partly drawn) [(S)-1-(4-Chloro-phenyl)-5-oxo-pyrrolidine-2-carboxylic acid (4-tert-butyl-cyclohexyl)-amide], the response was half-maximal at 159 nM (EC50). Take `Cc1ccc(NC(=O)[C@@H]2CCC(=O)N2c2ccc(Cl)cc2)nc1` [(S)-1-(4-Chloro-phenyl)-5-oxo-pyrrolidine-2-carboxylic acid (5-methyl-pyridin-2-yl)-amide]: the EC50 came to 485 nM. As to `CC(C)(CO)c1cc(NC(=O)[C@@H]2CCC(=O)N2c2ccc(Cl)cc2)on1` [(S)-1-(4-Chloro-phenyl)-5-oxo-pyrrolidine-2-carboxylic acid [3-(2-hydroxy-1,1-dimethyl-ethyl)-isoxazol-5-yl]-amide], the midpoint of the response, the EC50, lay at 152 nM. `CC(C)(C)CC(C)(C)NC(=O)[C@@H]1CCCN1c1ccc(Cl)cc1` [(S)-1-(4-Chloro-phenyl)-pyrrolidine-2-carboxylic acid (1,1,3,3-tetramethyl-butyl)-amide]: the EC50 was 25.1 nM. `CC(=O)N1CCC(CNC(=O)[C@@H]2CCCN2c2ccc(Cl)cc2)CC1` [(S)-1-(4-Chloro-phenyl)-pyrrolidine-2-carboxylic acid (1-acetyl-piperidin-4-ylmethyl)-amide]: the EC50 turned out to be 0.015 nM.

Staying with this assay, now noted: CHO cells expressing human CB2R; inhibition of forskolin-stimulated cAMP synthesis; mean; read-out: CB2 CAMP @ EC50 nM (mean).
With `CC(C)(C)c1cc(NC(=O)[C@@H]2CCC(=O)N2c2cccc(Cl)c2)no1` [(S)-1-(3-Chloro-phenyl)-5-oxo-pyrrolidine-2-carboxylic acid (5-tert-butyl-isoxazol-3-yl)-amide], the EC50 was determined as 296 nM.

Consider `O=C(Nc1nc(-c2ccccc2)ns1)[C@@H]1CCC(=O)N1c1ncc(C(F)(F)F)cc1Cl` [(S)-1-(3-chloro-5-trifluoromethyl-pyridin-2-yl)-5-oxo-pyrrolidine-2-carboxylic acid (3-phenyl-1,2,4-thiadiazol-5-yl)-amide], for which the EC50 is 0.549 nM. On to `CCC(C)c1cc(NC(=O)[C@@H]2CCC(=O)N2c2ccc(Cl)cc2)on1` (stereo partly drawn) [(S)-1-(4-Chloro-phenyl)-5-oxo-pyrrolidine-2-carboxylic acid (3-sec-butyl-isoxazol-5-yl)-amide], for which the EC50 is 104 nM.

Turning to `O=C(Nc1nc2cc(Cl)ccc2[nH]1)[C@@H]1CCC(=O)N1c1ccc(Cl)cc1` [(S)-1-(4-Chloro-phenyl)-5-oxo-pyrrolidine-2-carboxylic acid (5-chloro-1H-benzimidazol-2-yl)-amide], the EC50 came to 255 nM. `COc1ccc(-c2nsc(NC(=O)[C@@H]3CCC(=O)N3c3ccc(Cl)cc3)n2)cc1` [(S)-1-(4-Chloro-phenyl)-5-oxo-pyrrolidine-2-carboxylic acid [3-(4-methoxy-phenyl)-1,2,4-thiadiazol-5-yl]-amide]: the EC50 was found to be 194 nM.
